# Experimental data as given in PubChem BioAssay AID1648 (Sanford-Burnham Center for Chemical Genomics, 2009).
# The source made the active and inactive calls. How the calls were made is not given here.
# Target: Serine/threonine-protein kinase mTOR (Homo sapiens) (UniProt P42345)
# Assay: mTOR FRB domain ligand binding – biophysical, NMR (AID 1648)
# Conditions: NMR binding to FRB domain, chemical shift
# Serine/threonine-protein kinase mTOR (Homo sapiens), sequence (P42345 2015-2114): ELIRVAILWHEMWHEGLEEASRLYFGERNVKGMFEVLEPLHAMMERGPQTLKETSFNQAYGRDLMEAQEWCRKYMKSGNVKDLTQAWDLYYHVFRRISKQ
row,Structure (SMILES),Kd
1,COc1cc(C(=S)N2CCC(C(N)=O)CC2)ccc1O,> 4 mM (inactive)
2,Cc1cc(C)cc(C(=O)n2cnnc2N)c1,> 4 mM (inactive)
3,COc1ccc(S(N)(=O)=O)cc1,> 4 mM (inactive)
4,CC1(C)O[C@H]2CC(=O)OC[C@]23[C@H]2CC[C@@]4(C)[C@H](c5ccoc5)OC(=O)[C@H]5O[C@]54[C@]2(C)C(=O)C[C@@H]13,> 4 mM (inactive)
5,C[C@H](CCC(=O)O)[C@H]1CCC2C3C(CC[C@@]21C)[C@@]1(C)CC[C@@H](O)C[C@H]1C[C@@H]3O (stereo not given in full),> 4 mM (inactive)
6,O=C1CSC(=Nc2ccccc2[N+](=O)[O-])N1,> 4 mM (inactive)
7,CCc1nnsc1C(=O)Nc1nccs1,> 4 mM (inactive)
8,NC(=O)c1ccc(-c2ccccn2)s1,> 4 mM (inactive)
9,COc1ccc(-c2cc(=O)c3c(OC(C)=O)cc(OC(C)=O)cc3o2)cc1,> 4 mM (inactive)
10,CC1(C)N=C2C(=[N+]1[O-])CCC/C2=N\O,> 4 mM (inactive)
11,COc1cc(N)ccc1NC(=O)c1cccs1,> 4 mM (inactive)
12,COC(=O)CC1SC(=O)NC1=O (stereo not given),> 4 mM (inactive)
13,CCCn1cnc2sc(C(N)=O)c(C)c2c1=O,> 4 mM (inactive)
14,CCOc1ccc(C(=O)c2ccc(OC)c(O)c2O)cc1,> 4 mM (inactive)
15,COC(=O)c1scc(C)c1N,> 4 mM (inactive)
16,CC1(C)NC(=O)N(CN2CCOCC2)C1=O,> 4 mM (inactive)
17,Cc1cc(C)nc(/N=C(/N)N2CCN(C)CC2)n1,> 4 mM (inactive)
18,Cc1nnc(Nc2ccc(S(N)(=O)=O)cc2)[nH]c1=O,> 4 mM (inactive)
19,O=C(Nc1ccc2c(c1)OCO2)c1cnn2cccnc12,> 4 mM (inactive)
20,NS(=O)(=O)c1ccccc1Cl,> 4 mM (inactive)
21,Nc1ncnc(NCc2cccnc2)c1[N+](=O)[O-],> 4 mM (inactive)
22,N#C/C(=C\c1ccc[nH]1)S(=O)(=O)c1ccccc1,> 4 mM (inactive)
23,COC(=O)C1=CCCN(C)C1,> 4 mM (inactive)

row,Structure (SMILES),Kd
1,NS(=O)(=O)c1ccc(NC(=O)/C=C\C(=O)O)cc1,> 4 mM (inactive)
2,Cc1cc(C(=O)NC(C)c2ccncc2)cs1 (stereo not given),> 4 mM (inactive)
3,Cc1cc(C(=O)N2CCOCC2)c(C)o1,> 4 mM (inactive)
4,O=C1NC(=S)S/C1=C/c1ccncc1,> 4 mM (inactive)
5,C=C(C)[C@H]1COc2cc3oc(=O)ccc3cc2O1,> 4 mM (inactive)
6,c1ccc(Cn2cccc2)nc1,> 4 mM (inactive)
7,CNC(=O)c1cc2cccc(OC)c2oc1=O,> 4 mM (inactive)
8,Cc1cc(C(=O)c2c(C)nn(C)c2Cl)n(C)n1,> 4 mM (inactive)
9,O=S1(=O)CCC(NC(=S)N2CCCCC2)C1 (stereo not given),> 4 mM (inactive)
10,N#CC(O[C@@H]1O[C@H](CO[C@@H]2O[C@H](CO)[C@@H](O)[C@H](O)[C@H]2O)[C@@H](O)[C@H](O)[C@H]1O)c1ccccc1 (stereo not given in full),> 4 mM (inactive)
11,CC(C)Nc1ncnc2c1nnn2C,> 4 mM (inactive)
12,COCC(=O)Nc1cccc2ccccc12,> 4 mM (inactive)
13,Cc1nc2cc(Cl)ccc2n1CCO,> 4 mM (inactive)
14,CN1CCC(N(C)C2CCN(C)CC2)CC1,> 4 mM (inactive)
15,Cc1ccsc1/C=c1\sc2ncnn2c1=O,> 4 mM (inactive)
16,COc1ccc2c(c1)OC[C@@H](Cc1ccc(OC)c(OC)c1)[C@@H]2O,> 4 mM (inactive)
17,O=C(CSc1ccccc1)N1CCC2(CC1)OCCO2,> 4 mM (inactive)
18,CC1(C)CC23C(=O)CCC(O)C2(C)CCC13 (stereo not given),> 4 mM (inactive)
19,COc1ccc(C(C)=O)c(OC)c1,> 4 mM (inactive)
20,C[C@H]1[C@H](C)CC[C@]2(C(=O)O)CC[C@]3(C)C(=CCC4[C@@]5(C)C[C@@H](O)[C@H](O)[C@@](C)(CO)C5[C@H](O)C[C@]43C)[C@H]12 (stereo not given in full),> 4 mM (inactive)
21,Cc1ccc(-c2c(C)n([O-])c3c([n+]2=O)CCCC3)o1,> 4 mM (inactive)
22,Cn1nc(-c2ccccc2)cc1N,> 4 mM (inactive)
